Measured values as given in article PMC8279484 (Journal of Medicinal Chemistry, 2021).
Several values for one entry are separate records, joined by “and”; a condition that tells them apart may be missing. Equal entries are not always repeated.

Legend:
Type in all cases: cell-based, human
[1] = system: THP-1-MF0 macrophage; test: Phagocytosis of fluorescent E. coli bioparticles by THP-1-MF0 macrophages; details: for Efficacy Emax (%): 30 min pretreatment 1 fM–1 μM, figure expresses fold change; for Efficacy Emax (%) / EC50: 2 h bioparticles; for EC50: Homo sapiens, Macrophage, 30 min pretreatment, read-out: Potency EC50
Description: Mycoplasma-free THP-1 monocytes were grown in an RPMI 1640 (Gibco) medium containing 2 mM L-glutamine, 2.00 g/L sodium bicarbonate, and 2.00 g/L glucose. Then, 10% (v/v) heat-inactivated FBS (30 min at 56 °C) and Pen-Strep (100 U/mL to 100 μg/mL) were supplemented to the growth media.
Cell adherence was allowed for 1 h and 30 min at 37 °C/5% CO2. Cells were then treated for 30 min with controls and phagocytosis effectors for testing (vehicle, LXs, Rvs, or sLXms). Subsequently, media containing controls/effectors were vacuum-aspirated and replaced with a solution containing fluorescently prelabeled E. coli-derived bioparticles and cells were incubated in the dark for 2 h at 37 °C/5% CO2 to allow particle ingestion by monocytes/macrophages. After that, media containing bioparticles were vacuum-aspirated and replaced with a solution containing trypan blue and cells were incubated for 1 min at room temperature to allow quenching of unbound particles to ensure specificity of the fluorescent signal, deriving only from ingested particles (not shown). After aspiration of Trypan, the fluorescence reading was immediately performed at the following conditions: end point; reading from the bottom of the plate; Ex.480/Em.520 nm.

[2] = system: THP-1 LUCIA monocytes; test: Intrinsic cytotoxicity: LDH release without LPS; details: for intrinsic LDH release versus vehicle / spontaneous cell release: absence of LPS, 24 h, controls Dex 1 μM, 2 1 pM, 5 1 pM; for Intrinsic Toxicity TC50 (pM): half-maximal intrinsic LDH-associated toxic activity, no LPS; for Intrinsic Toxicity Level: LDH-associated level of cytotoxicity (high / moderate / low)
Method in brief: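 THP-1-Lucia NF-κB cells exposed 24 h to compounds, vehicle or controls, then LPS-stimulated for extrinsic, unstimulated for intrinsic. Supernatant LDH read at 490 nm minus 690 nm, relative to vehicle; maximum release from 2% Triton-X-100 lysis, spontaneous release from untreated cells; LPS response set to 100%.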

[3] = system: IFNγ; test: LPS-induced IFNγ release from THP-1 Lucia monocytes (multiplex electrochemiluminescence); details: for IC50: Homo sapiens, THP-1; for IC50 / Imax, IFNγ release: LPS 50 ng/mL, 24 h; for Imax, IFNγ release: concentration–response
Description: LXA41 and all of the tested sLXms were dissolved in ethanol and further diluted in a culture medium (final ethanol concentration 0.1%; equivalent concentrations were used as the vehicle control). Prior to in vitro experiments, THP-1-Lucia NF-κB cells were harvested and plated at 1 × 10^5 cells/well on 96-well plates and left to settle in the incubator at 37 °C, 95% humidity, and 5% CO2, in 0.1% FBS-containing media, pretreated for 30 min with increasing doses of LXA41, sLXms (from 10^–12 to 10^–6 M), or appropriate controls, followed by stimulation with 50 ng/mL LPS for 24 h. Untreated (Unt) or vehicle-treated (Veh) cells were used as negative controls; 1 pM (1R)-5, the (1R)-epimer of the benzo-mimetic, was used as a positive control for any aromatic mimetic; and, finally, we compared the observed effects to the conventional glucocorticoid dexamethasone (Dex) treatment, at 1 μM.
After 24 h of exposure to LXA41, sLXms, or vehicle, followed by LPS stimulation (50 ng/mL), as described above, THP-1-Lucia NF-κB-cell supernatants were collected and cleared by centrifugation. Concentrations of IFN-γ, IL-1β, IL-6, IL-8, IL-10, IL-12p70, and TNF-α in culture supernatants were assessed by electro-chemi-luminescent detection, using a commercially available human 96-well plate “multiplex” (several analytes in the same well) kit for tissue culture samples, according to the manufacturers’ guidelines.
The “coding” of the heat-map indicates the arbitrary criteria to assign points to each single PD component (efficacy = Imax or Emax; potency = IC50 or EC50; slope = HS) to generate a final (aggregate) relative PD score. If a single PD component was greater than the reference level (x > 1), then the single-component relative score was arbitrarily set to +1 (light green) or +2 (dark green). If a single PD component was equal to the reference level (x = 1), then the single-component relative score was arbitrarily set to 0 (gray). If a single PD component was smaller than the reference level (x < 1), then the single-component relative score was arbitrarily set to −1 (light red) or −2 (dark red). If the curve of a single PD component was best fitting to a flat line (x = 0), then the single-component relative score was arbitrarily set to −4 (purple) (Table S1).

SMILES	Efficacy Emax (%) [1]	EC50 [1] [pM]	Potency Rel. Pot. ([1]; relative to LXA4 (1))	Single comp. score Rel. Pot. ([1]; relative to LXA4 (1))	intrinsic LDH release versus vehicle / spontaneous cell release [2]	Intrinsic Toxicity TC50 (pM) [2] [pM]	PD score, IFNγ release ([3]; relative to LXA4 (1))	Intrinsic Toxicity Level [2]	IC50 [3] [pM]	Imax, IFNγ release [3] [%]	concentration of peak phagocytosis ([1]; back to baseline at 1 μM) [nM]	increase of phagocytosis ([1]; concentration-dependent, at peak) [fold]	Efficacy Rel. Eff. ([1]; relative to LXA4 (1))
CCCCC[C@@H](O)c1c(/C=C/[C@@H](O)[C@@H](O)CCCC(=O)OC)nc(C)n1C [Compound 5, imidazolo-LXA4]	4.2 ± 0.7%	10	500	2 (x ≥ 5)	did not display any significant cytotoxic effect	–	–	–	–	–	–	–	–
CCCCC[C@@H](O)c1nc2ccccc2nc1/C=C/[C@H]1OC(C)(C)O[C@H]1CCCC(=O)OC [(R)-17, Methyl 4-((4S,5R)-5-((E)-2-(3-((R)-1-Hydroxyhexyl)quinoxalin-2-yl)vinyl)-2,2-dimethyl-1,3-dioxolan-4-yl)butanoate]	–	–	–	–	–	100	–	–	–	–	–	–	–
CCCCCCC[C@H](O)c1nc2ccccc2nc1/C=C/[C@@H](O)[C@@H](O)CCCC(=O)OC [(S)-8, Methyl (5S,6R,E)-5,6-Dihydroxy-8-(3-((S)-1-hydroxyoctyl)quinoxalin-2-yl)oct-7-enoate]	–	–	–	–	lower than the vehicle	100	negative PD scores	Low	–	–	–	–	–
CCCCC[C@@H](O)c1nc2ccccc2nc1/C=C/[C@@H](O)[C@@H](O)CCCC(=O)OC [(R)-6, Methyl (5S,6R,E)-5,6-Dihydroxy-8-(3-((R)-1-hydroxyhexyl)quinoxalin-2-yl)oct-7-enoate]	–	50	100	2 (x ≥ 5)	lower than the vehicle	500	–	Low and low cytotoxicity	1	62 ± 1	–	–	–
CCCCC[C@H](O)/C=C/C=C\C=C\C=C\[C@@H](O)[C@@H](O)CCCC(=O)O [Compound 1, LXA4]	4.2 ± 0.5% and 4.2 ± 2%	–	1	–	–	–	–	–	1	72 ± 4	100	4	0
